According to US20220226337A1 (Gilead Sciences, Inc., priority 2018, published 2022):

Target: T1, α4β7 integrin interaction with MadCAM-1 (RPMI8866 cells) (Homo sapiens, UniProt P13612+P26010)
T1 construct: α4β7 integrin expressing cells; endogenous in cells; host or cells: RPMI8866 cells
T1 sequence (P13612 34-1032): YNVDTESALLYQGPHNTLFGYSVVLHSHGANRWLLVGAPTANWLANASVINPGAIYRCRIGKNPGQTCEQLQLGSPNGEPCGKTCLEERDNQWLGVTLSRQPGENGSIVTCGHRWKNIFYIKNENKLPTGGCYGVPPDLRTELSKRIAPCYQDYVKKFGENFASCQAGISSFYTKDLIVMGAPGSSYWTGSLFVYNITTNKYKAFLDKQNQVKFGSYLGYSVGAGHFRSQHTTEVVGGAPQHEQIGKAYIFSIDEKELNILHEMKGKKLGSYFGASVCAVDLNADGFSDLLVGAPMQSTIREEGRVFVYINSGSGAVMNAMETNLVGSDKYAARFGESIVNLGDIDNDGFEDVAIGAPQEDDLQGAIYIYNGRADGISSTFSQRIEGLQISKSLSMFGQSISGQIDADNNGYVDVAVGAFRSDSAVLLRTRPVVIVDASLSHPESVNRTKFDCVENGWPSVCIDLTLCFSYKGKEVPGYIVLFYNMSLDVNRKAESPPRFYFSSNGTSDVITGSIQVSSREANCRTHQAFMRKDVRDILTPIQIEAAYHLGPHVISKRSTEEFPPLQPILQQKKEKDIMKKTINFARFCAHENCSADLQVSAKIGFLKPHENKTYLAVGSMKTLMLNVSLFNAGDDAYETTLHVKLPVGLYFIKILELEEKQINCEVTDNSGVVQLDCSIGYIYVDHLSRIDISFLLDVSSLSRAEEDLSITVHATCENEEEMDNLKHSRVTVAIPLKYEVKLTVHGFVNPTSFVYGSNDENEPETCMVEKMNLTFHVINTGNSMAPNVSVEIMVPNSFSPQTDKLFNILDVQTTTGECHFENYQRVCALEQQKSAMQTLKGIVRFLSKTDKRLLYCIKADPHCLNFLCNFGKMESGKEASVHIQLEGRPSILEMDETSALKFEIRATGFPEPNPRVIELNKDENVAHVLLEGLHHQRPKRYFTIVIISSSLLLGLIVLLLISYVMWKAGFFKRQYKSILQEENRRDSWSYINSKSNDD
T1 sequence (P26010 20-798): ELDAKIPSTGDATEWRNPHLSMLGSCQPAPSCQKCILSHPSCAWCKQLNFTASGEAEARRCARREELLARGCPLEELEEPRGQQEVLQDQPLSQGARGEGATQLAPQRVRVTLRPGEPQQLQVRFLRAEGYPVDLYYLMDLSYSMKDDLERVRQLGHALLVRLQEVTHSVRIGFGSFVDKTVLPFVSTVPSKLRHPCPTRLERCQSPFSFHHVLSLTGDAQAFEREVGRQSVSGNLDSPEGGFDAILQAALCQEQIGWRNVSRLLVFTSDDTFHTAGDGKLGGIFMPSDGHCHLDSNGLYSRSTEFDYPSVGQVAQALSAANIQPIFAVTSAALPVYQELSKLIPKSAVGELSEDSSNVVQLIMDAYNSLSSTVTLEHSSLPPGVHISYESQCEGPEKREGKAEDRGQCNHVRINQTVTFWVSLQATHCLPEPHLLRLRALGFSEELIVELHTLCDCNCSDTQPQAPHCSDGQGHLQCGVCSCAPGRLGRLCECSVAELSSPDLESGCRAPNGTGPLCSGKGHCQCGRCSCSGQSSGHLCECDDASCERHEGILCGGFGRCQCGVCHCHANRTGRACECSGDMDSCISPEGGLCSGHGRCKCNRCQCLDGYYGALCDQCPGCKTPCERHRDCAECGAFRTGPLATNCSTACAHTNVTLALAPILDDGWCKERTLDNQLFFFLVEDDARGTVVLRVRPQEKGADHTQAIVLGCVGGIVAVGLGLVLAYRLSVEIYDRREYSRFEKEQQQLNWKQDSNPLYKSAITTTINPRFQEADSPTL
Assay: α4β7 Integrin Cell Capture Assay
Assay type: cell-based
Details: capture of α4β7 integrin expressing RPMI8866 cells on recombinant MadCAM-1 extracellular domain-coated plate; 0.5 mM MnCl2
Summary of the method: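 RPMI8866 cells (0.5×10^6 cells/mL in DMEM + 0.5% FBS + 0.5 mM MnCl2) preincubated with compound 1 h at 37 °C, then allowed to adhere 30 min at 37 °C to plates coated with MAdCAM-1 extracellular domain (1.0 μg/mL). Bound cells fixed with 2% glutaraldehyde, Hoechst-stained, imaged and counted; EC50 from cell count versus concentration.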

EC50	SMILES
0.633 nM	CC[C@@H](Nc1cc(F)c(C(=O)N[C@@H](Cc2ccc(-c3c(C(F)(F)F)cc(C)n(C)c3=O)c3c2CCCO3)C(=O)O)c(F)c1)C(F)(F)F [Example 43, (S)-2-(2,6-difluoro-4-(((R)-1,1,1-trifluorobutan-2-yl)amino)benzamido)-3-(8-(1,6-dimethyl-2-oxo-4-(trifluoromethyl)-1,2-dihydropyridin-3-yl)chroman-5-yl)propanoic acid]
0.25 nM	COc1cc(C)n(C)c(=O)c1-c1ccc(C[C@H](NC(=O)c2c(F)cc(N3CCOC[C@@H]3C(F)(F)F)cc2F)C(=O)O)c2c1OCCC2 [Example 46, (S)-2-(2,6-difluoro-4-((R)-3-(trifluoromethyl)morpholino)benzamido)-3-(8-(4-methoxy-1,6-dimethyl-2-oxo-1,2-dihydropyridin-3-yl)chroman-5-yl)propanoic acid]
0.58 nM	CC[C@@H](Nc1cc(F)c(C(=O)N[C@@H](Cc2ccc(-c3c(OC)cc(C)n(C)c3=O)c3c2CCCO3)C(=O)O)c(F)c1)C(F)(F)F [Example 47, (S)-2-(2,6-difluoro-4-(((R)-1,1,1-trifluorobutan-2-yl)amino)benzamido)-3-(8-(4-methoxy-1,6-dimethyl-2-oxo-1,2-dihydropyridin-3-yl)chroman-5-yl)propanoic acid]
1.23 nM	COc1cc(C)n(C)c(=O)c1-c1ccc(C[C@H](NC(=O)c2c(F)cc(N[C@H](C)C(F)(F)F)cc2F)C(=O)O)c2c1OCCC2 [Example 48, (S)-2-(2,6-difluoro-4-(((R)-1,1,1-trifluoropropan-2-yl)amino)benzamido)-3-(8-(4-methoxy-1,6-dimethyl-2-oxo-1,2-dihydropyridin-3-yl)chroman-5-yl)propanoic acid]
0.83 nM	CC[C@@H](Nc1cc(F)c(C(=O)N[C@@H](Cc2ccc(-c3nc(C)c(C)n(C)c3=O)c3c2CCCO3)C(=O)O)c(F)c1)C(F)(F)F [Example 49, (S)-2-(2,6-difluoro-4-(((R)-1,1,1-trifluorobutan-2-yl)amino)benzamido)-3-(8-(4,5,6-trimethyl-3-oxo-3,4-dihydropyrazin-2-yl)chroman-5-yl)propanoic acid]
43.4 nM	C[C@@H](Nc1cc(F)c(C(=O)N[C@@H](Cc2ccc(-c3c(Cl)cc(F)cc3Cl)c3c2CCCO3)C(=O)O)c(F)c1)C(F)(F)F [Example 50, (S)-3-(8-(2,6-dichloro-4-fluorophenyl)chroman-5-yl)-2-(2,6-difluoro-4-(((R)-1,1,1-trifluoropropan-2-yl)amino)benzamido)propanoic acid]
34 nM	O=C(N[C@@H](Cc1ccc(-c2c(Cl)cc(F)cc2Cl)c2c1OCCN2)C(=O)O)c1c(F)cccc1F [Example 51, (S)-3-(5-(2,6-dichloro-4-fluorophenyl)-3,4-dihydro-2H-benzo[b][1,4]oxazin-8-yl)-2-(2,6-difluorobenzamido)propanoic acid]
1.63 nM	CC[C@@H](Nc1cc(F)c(C(=O)N[C@@H](Cc2ccc(-c3c(C)cc(C)n(C)c3=O)c3c2CCCO3)C(=O)O)c(F)c1)C(F)(F)F [Example 52, (S)-2-(2,6-difluoro-4-(((R)-1,1,1-trifluorobutan-2-yl)amino)benzamido)-3-(8-(1,4,6-trimethyl-2-oxo-1,2-dihydropyridin-3-yl)chroman-5-yl)propanoic acid]
3.28 nM	Cc1cc(C)n(C)c(=O)c1-c1ccc(C[C@H](NC(=O)c2c(F)cc(N[C@H](C)C(F)(F)F)cc2F)C(=O)O)c2c1OCCC2 [Example 53, (S)-2-(2,6-difluoro-4-(((R)-1,1,1-trifluoropropan-2-yl)amino)benzamido)-3-(8-(1,4,6-trimethyl-2-oxo-1,2-dihydropyridin-3-yl)chroman-5-yl)propanoic acid]
0.607 nM	CC[C@@H](Nc1cc(F)c(C(=O)N[C@@H](Cc2ccc(-c3c(C)n(C)c(=O)n(C)c3=O)c3c2CCCO3)C(=O)O)c(F)c1)C(F)(F)F [Example 54, (S)-2-(2,6-difluoro-4-(((R)-1,1,1-trifluorobutan-2-yl)amino)benzamido)-3-(8-(1,3,6-trimethyl-2,4-dioxo-1,2,3,4-tetrahydropyrimidin-5-yl)chroman-5-yl)propanoic acid]
4.19 nM	Cc1c(-c2ccc(C[C@H](NC(=O)c3c(F)cccc3F)C(=O)O)c3c2OCCC3)c(=O)n(C)c2ccccc12 [Example 57, (S)-2-(2,6-difluorobenzamido)-3-(8-(1,4-dimethyl-2-oxo-1,2-dihydroquinolin-3-yl)chroman-5-yl)propanoic acid]
4.12 nM	Cc1c(-c2ccc(C[C@H](NC(=O)c3c(Cl)cccc3Cl)C(=O)O)c3c2OCCC3)c(=O)n(C)c2ccccc12 [Example 60, (S)-2-(2,6-dichlorobenzamido)-3-(8-(1,4-dimethyl-2-oxo-1,2-dihydroquinolin-3-yl)chroman-5-yl)propanoic acid]
7.99 nM	O=C(N[C@@H](Cc1ccc(-c2ncc3ccccc3c2Br)c2c1CCCO2)C(=O)O)c1c(Cl)cccc1Cl [Example 63, (S)-3-(8-(4-bromoisoquinolin-3-yl)chroman-5-yl)-2-(2,6-dichlorobenzamido) propanoic acid]
110 nM	O=C(N[C@@H](Cc1ccc(-c2cc(F)c(F)cc2OC2CC2)c2c1CCCO2)C(=O)O)c1c(Cl)cccc1Cl [Example 64, (S)-3-(8-(2-cyclopropoxy-4,5-difluorophenyl)chroman-5-yl)-2-(2,6-dichlorobenzamido)propanoic acid]
19.6 nM	O=C(N[C@@H](Cc1ccc(-c2ncc3ccccc3c2Br)c2c1CCCO2)C(=O)O)c1c(F)cccc1F [Example 65, (S)-3-(8-(4-bromoisoquinolin-3-yl)chroman-5-yl)-2-(2,6-difluorobenzamido)propanoic acid]
120 nM	O=C(N[C@@H](Cc1ccc(-c2cccc3c2OCCC3)c2c1CCCO2)C(=O)O)c1c(F)cccc1F [Example 66, (S)-3-([8,8′-bichroman]-5-yl)-2-(2,6-difluorobenzamido)propanoic acid]
40.9 nM	O=C(N[C@@H](Cc1ccc(-c2cccc3c2OCCC3)c2c1CCCO2)C(=O)O)c1c(Cl)cccc1Cl [Example 67, (S)-3-([8,8′-bichroman]-5-yl)-2-(2,6-dichlorobenzamido)propanoic acid]
56.5 nM	O=C(N[C@@H](Cc1ccc(-c2cc(F)c(F)cc2OC2CC2)c2c1CCCO2)C(=O)O)c1c(F)cccc1F [Example 68, (S)-3-(8-(2-cyclopropoxy-4,5-difluorophenyl)chroman-5-yl)-2-(2,6-difluorobenzamido)propanoic acid]
158 nM	Cn1nc(-c2ccc(C[C@H](NC(=O)c3c(Cl)cccc3Cl)C(=O)O)c3c2OCCC3)c2ccccc21 [Example 69, (S)-2-(2,6-dichlorobenzamido)-3-(8-(1-methyl-1H-indazol-3-yl)chroman-5-yl)propanoic acid]
30.5 nM	COc1cc(F)c(F)cc1-c1ccc(C[C@H](NC(=O)c2c(Cl)cccc2Cl)C(=O)O)c2c1OCCC2 [Example 70, (S)-2-(2,6-dichlorobenzamido)-3-(8-(4,5-difluoro-2-methoxyphenyl)chroman-5-yl)propanoic acid]
